Source: patent US8697731B2, “Derivatives of 2-pyridin-2-yl-pyrazol-3(2H)-one, preparation and therapeutic use thereof” (Sanofi, priority 2008, dated 2014)

Columns and labels:
[1] = test system: VEGF; test: Measurement of the secretion of VEGF by Hep3B hepatocytes (ELISA); assay type: cell-based; settings: Homo sapiens, supernatant of Hep3B cells, 18 hours under normoxia, concentration that produces 50% of the maximum response of this same compound
Procedure: (§1) The test is an ELISA test for measuring VEGF and EPO in the supernatant of Hep3B cells treated under hypoxia or with deferoxamine as controls or with the potential HIF activators. The test was adapted to a 96-well plate, allowing greater compound screening capacity.
(§2) 2.3.1 Experiment Plan • 1) Inoculation of the cells on D0 • 2) Adherence for 6 hours under normoxia • 3) Preparation and addition of the products (Biomek 2000 and FX) • 4) Incubation under normoxia for 18 hours • 5) EPO and VEGF assay in the supernatant on D+1
(§3) The cells are subcultured into 100 μl of culture medium (10% FCS) in black, opaque-bottomed 96-well plates (reference Costar 3916) at 30000 cells/well, with Multidrop.
(§4) The test products are prepared at 10^−2M in 100% DMSO and then diluted to […] in medium containing 0.1% FCS (6 μl in 194 μl of MEM). 200 μl of each compound are deposited in column 12 of a 96-well plate. Dilution ranges from 3×10^−4M to 3×10^−8M are prepared with Biomek 2000 (programme: range of 9 points in series). 100 μl of MEM 0.1% FCS and Deferoxamine 5×10^−3M are added as controls to column 3 and, respectively, to wells A,B,C,D & wells E,F,G,H
(§5) The medium of the cells inoculated the day before into 96-well plates is changed for 90 μl of medium containing 0.1% FCS and 10 μl are distributed with FX 96 from the 96-well DL plates to the cell plates.
(§6) The cell plates thus treated are placed for 18 hours in an incubator at 37° C. (ambient O2, 6% CO2).
(§7) The supernatants (80 μl) of the Hep3B cells in the 96-well plates treated with the potential HIF activators are recovered with a multichannel pipette for simultaneous assay of the VEGF and the EPO by ELISA according to the supplier's instructions (Kit EPO Mesoscale (ref K15122B-2)).
(§8) The activating activity of a compound with respect to HIF is given by the concentration that produces 50% of the maximum response of this same compound in Table IV.

[2] = test system: HIF1-alpha; test: Measurement of the stabilization of HIF1-alpha in HEKEA cells (beta-galactosidase complementation); assay type: cell-based, human; settings: HEKEA_HIF1-alphaPLBL cells, 6 hours under normoxia, luminescence; molar concentration that produces 50% of the maximum response of this same compound
From the text: Furthermore, a subject of the invention is also a uniform test for the direct measurement by beta-galactosidase complementation of the amount of HIF1-alpha protein in the nucleus of cells, preferably HEK cells, after treating the said cells with one or more test compounds, which consists in: • (a) inoculating, preferably in 384-well plates, the said cells in a suitable culture medium, preferably 1% foetal calf serum (abbreviated as FCS); • (b) adding the test compound(s) at a suitable concentration in a suitable solvent to the cells previously inoculated in the said culture medium; preferably the test compounds are diluted in 0.1% FCS; • (c) incubating the said cells thus prepared in an indicator at about 37° C., advantageously for about 6 hours; • (d) lysing the cells with a lysis buffer containing a chemiluminescent substrate for beta-galactosidase; • (e) incubating in the absence of light, before reading and measuring the luminescence, which is a function of the beta-galactosidase activity.
The test is a cell test based on the principle of enzyme complementation, the enzyme used herein being beta-galactosidase. HEKEA cells are HEK cells stably expressing, and restricted in their nucleus, mutant beta-galactosidase (omega fragment, also known as EA) (line sold by DiscoverX). This construct makes it possible to obtain beta-galactosidase activity only when the protein comprising the Prolabel complementation fragment has migrated into the nucleus.
The protein of interest comprising the Prolabel fragment is in this case an HIF1-alpha or HIF1-alpha mutated at the two prolines 402 and 564 replaced with alanines, is C-terminal fused via molecular biology (DiscoverX vector sold by Clontech) with the small complementation peptide fragment (Prolabel or ED, about 4 kDa). The vector coding for the chimeric protein HIF1-alpha_Prolabel is then transfected into HEKEA cells to obtain stable clones (HEKEA_HIF1-alphaPLBL).
The amount of C-terminal Prolabel-“labelled” HIF1-alpha protein obtained after treating the cells to hypoxia or compounds that are potentially HIF activators is measured by adding to the cells a lysis buffer containing a chemiluminescent substrate for beta-galactosidase.
The measurement of the beta-galactosidase activity will be proportional to the amount of Prolabel and thus of HIF1-alpha that has migrated into the nucleus of the cells.
1.3.1 Experiment Plan • 1) Inoculation of the cells on D0 • 2) Adherence for 24 hours under normoxia • 3) Preparation and addition of the products (Biomek 2000 and FX) on D+1 • 4) Incubation under normoxia for 6 hours • 5) Reading of the plates (by luminescence)
The cells are inoculated with Multidrop in white, opaque-bottomed 384-well plates (Greiner ref 3704), in 30 μl of culture medium (1% FCS) a 10000 cells/well (cell plate).
The test products are prepared at 3×10^−2 M in 100% DMSO and then diluted to 3×10^−4 M in medium containing 0.1% FCS (10 μl in 990 μl of MEM). They are then deposited by hand into column 12 of a round-bottomed 96-well plate (200 μl of each compound) known as the dilution plate (dl). The complete DL plate of 3×10^−4 M to 10^−9 M is then prepared with Biomek 2000 (programme: range of 10 points in series). For the references and controls, 100 μl of DMEM containing 0.1% FCS are added to column 1, 100 μl of Deferoxamine 10^−3M to column 2, wells A B C D and 100 μl of Deferoxamine 5×10^−3 M to column 2, wells E F G H.
3.3 μL are taken from the DL plate by pipetting with a Biomek FX 96 and placed in horizontal duplicate (columns 1 to 24) in each 384-well cell plate (HEKEA_HIF1-alphaPLBL cell plate).
The cells are then placed for 6 hours in an incubator at 37° C. (ambient O2, 6% CO2).
The kit used is the Prolabel chemiluminescent kit (Ref 93-0001 DiscoverX). […]

[3] = test system: EPO; test: Measurement of the secretion of EPO by Hep3B hepatocytes (ELISA); assay type: cell-based; settings: Homo sapiens, supernatant of Hep3B cells, 18 hours under normoxia, concentration that produces 50% of the maximum response of this same compound
Procedure: as §1, §2, §3, §4, §5, §6, §7, §8

| Compound | EC50 [2] | melting point | EC50 [1] | EC50 [3] |
| --- | --- | --- | --- | --- |
| CC(C)(C)NS(=O)(=O)c1ccc(-n2[nH]c3c(c2=O)CSC3)nc1 [Compound 18, N-tert-butyl-6-(3-oxo-4,6-dihydro-1H-thieno[3,4-c]pyrazol-2(3H)-yl)pyridine-3-sulfonamide] | 4.4 µM | 257 °C | 0.4 µM | 0.5 µM |
| O=c1c2c([nH]n1-c1ccc(S(=O)(=O)N3CCCCCC3)cn1)CSC2 [Compound 26, 2-[5-(azepan-1-ylsulfonyl)pyridin-2-yl]-1,2,4,6-tetrahydro-3H-thieno[3,4-c]pyrazol-3-one] | 1.5 µM | 236 °C | 1.3 µM | 1 µM |
| CCN(c1ccccc1)S(=O)(=O)c1ccc(-n2[nH]c3c(c2=O)CSC3)nc1 [Compound 9, N-ethyl-6-(3-oxo-4,6-dihydro-1H-thieno[3,4-c]pyrazol-2(3H)-yl)-N-phenylpyridine-3-sulfonamide] | 1.4 µM | 208 °C | 0.66 µM | 0.7 µM |
| CCc1ccnc(-n2[nH]c3c(c2=O)CSC3)c1 [Compound 61, sodium 2-(4-ethylpyridin-2-yl)-2,6-dihydro-4H-thieno[3,4-c]pyrazol-3-olate] | 1.9 µM | – | 2.8 µM | 2.2 µM |
| COc1ccnc(-n2[nH]c3c(c2=O)CSC3)c1 [Compound 59, 2-(4-methoxypyridin-2-yl)-1,2,4,6-tetrahydro-3H-thieno[3,4-c]pyrazol-3-one] | – | 254 °C | 3.1 µM | 2.6 µM |
| CN(C(C)(C)C)S(=O)(=O)c1ccc(-n2nc3c(c2O)CSC3)nc1 [Compound 36, sodium 2-{5-[tert-butyl(methyl)sulfamoyl]pyridin-2-yl}-2,6-dihydro-4H-thieno[3,4-c]pyrazol-3-olate] | 1.2 µM | – | 2 µM | 1.6 µM |
| CCN(c1ccccc1)S(=O)(=O)c1ccc(-n2[nH]c3c(c2=O)CSCC3)nc1 [Compound 13, N-ethyl-6-(3-oxo-1,4,6,7-tetrahydrothiopyrano[4,3-c]pyrazol-2(3H)-yl)-N-phenylpyridine-3-sulfonamide] | 5.2 µM | 176 °C | 1 µM | 0.9 µM |
| CCN(c1ccccc1)S(=O)(=O)c1ccc(-n2[nH]c3c(c2=O)SCCC3)nc1 [Compound 24, N-ethyl-6-(3-oxo-3,5,6,7-tetrahydrothiopyrano[3,2-c]pyrazol-2(1H)-yl)-N-phenylpyridine-3-sulfonamide] | 3 µM | 198 °C | 0.5 µM | 0.5 µM |
| CC(C)NS(=O)(=O)c1ccc(-n2[nH]c3c(c2=O)CSC3)nc1 [Compound 17, 6-(3-oxo-4,6-dihydro-1H-thieno[3,4-c]pyrazol-2(3H)-yl)-N-(propan-2-yl)pyridine-3-sulfonamide] | 10 µM | 258 °C | 2.9 µM | 2.9 µM |
| CCN(C(C)(C)C)S(=O)(=O)c1ccc(-n2nc3c(c2O)CSC3)nc1 [Compound 32, sodium 2-{5-[tert-butyl(ethyl)sulfamoyl]pyridin-2-yl}-2,6-dihydro-4H-thieno[3,4-c]pyrazol-3-olate] | 1.3 µM | – | 3.2 µM | 2.6 µM |

Continued by falling EC50 [2], values first:

| EC50 [2] | melting point | Compound | EC50 [1] | EC50 [3] |
| --- | --- | --- | --- | --- |
| 16 µM | 152 °C | O=c1c2c([nH]n1-c1ccc(S(=O)(=O)N3CCCC3)cn1)CSC2 [Compound 15, 2-[5-(pyrrolidin-1-ylsulfonyl)pyridin-2-yl]-1,2,4,6-tetrahydro-3H-thieno[3,4-c]pyrazol-3-one] | 3 µM | 2.8 µM |
| 8.8 µM | 152 °C | O=c1c2c([nH]n1-c1ccccn1)CSC2 [Compound 1, 2-pyridin-2-yl-1,2,4,6-tetrahydro-3H-thieno[3,4-c]pyrazol-3-one] | 3 µM | 2.9 µM |
| 8.7 µM | 226 °C | CN(c1ccccn1)S(=O)(=O)c1ccc(-n2[nH]c3c(c2=O)CSC3)nc1 [Compound 21, N-methyl-6-(3-oxo-4,6-dihydro-1H-thieno[3,4-c]pyrazol-2(3H)-yl)-N-pyridin-2-ylpyridine-3-sulfonamide] | 2.4 µM | 1.4 µM |
| 8.6 µM | 262 °C | O=c1c2c([nH]n1-c1ccc(S(=O)(=O)NC3CC3)cn1)CSC2 [Compound 16, N-cyclopropyl-6-(3-oxo-4,6-dihydro-1H-thieno[3,4-c]pyrazol-2(3H)-yl)pyridine-3-sulfonamide] | 3 µM | 3.5 µM |
| 3.3 µM | 164 °C | CCN(c1ccccc1)S(=O)(=O)c1ccc(-n2[nH]c3c(c2=O)COCC3)nc1 [Compound 25, N-ethyl-6-(3-oxo-1,4,6,7-tetrahydropyrano[4,3-c]pyrazol-2(3H)-yl)-N-phenylpyridine-3-sulfonamide] | 2.5 µM | 2.4 µM |
| 2.5 µM | – | CCN(c1ccccc1)S(=O)(=O)c1ccc(-n2nc3c(c2O)N(Cc2ccccc2)C(=O)CC3)nc1 [Compound 35, sodium 4-benzyl-2-{5-[ethyl(phenyl)sulfamoyl]pyridin-2-yl}-5-oxo-4,5,6,7-tetrahydro-2H-pyrazolo[4,3-b]pyridin-3-olate] | 1.1 µM | 1.7 µM |
| 1.6 µM | 192 °C | CCN(c1ccccc1)S(=O)(=O)c1ccc(-n2[nH]c3c(c2=O)CN(C(=O)OC(C)(C)C)CC3)nc1 [Compound 28, tert-butyl 2-[5-[ethyl(phenyl)sulfamoyl]pyridin-2-yl]-3-oxo-1,2,3,4,6,7-hexahydro-5H-pyrazolo[4,3-c]pyridine-5-carboxylate] | 1 µM | 1 µM |
| 0.65 µM | – | CC(C)(C)OC(=O)c1ccc(-n2[nH]c3c(c2=O)CSC3)nc1 [Compound 30, tert-butyl 6-(3-oxo-4,6-dihydro-1H-thieno[3,4-c]pyrazol-2(3H)-yl)pyridine-3-carboxylate] | 1.8 µM | 1.5 µM |
